Data reported in patent US7329660B2, “Phthalazine derivatives for treating inflammatory diseases” (Novartis AG, priority 1999, dated 2008).

Legend:
male Wistar rats = test: Rat adjuvant arthritis model, therapeutic dosing; format: in vivo; conditions: for % inhibition of swelling: day 15 to day 22, swelling of the tarsal joints
Excerpt: The well-known rat adjuvant arthritis model (Pearson, Proc. Soc. Exp. Biol. 91, 95-101 (1956)) is used to test the anti-arthritic activity of compounds of the formula I, or salts thereof. Adjuvant Arthritis can be treated uwing two different dosing schedules: either (i) starting time of immunisation with adjuvant (prophylactic dosing); or from day 15 when the arthritic response is already established (therapeutic dosing). Preferably a therapeutic dosing schedule is used. For comparison, e.g. SDZ115-155 (=DUP697) is administered in a separate group.
(§1) In detail, male Wistar rats (5 animals per group, weighing epproximately 200 g, supplied by Iffa Credo, France) are injected i.d. (intra-dermally) at the base of the tail with 0.1 ml of mineral oil containing 0.6 mg of lyophilised heat-killed Mycobacterium tuberculosis. The rats are treated with the test compound (3, 10 or 30 mg/kg p.o. once per day), or vehicle (water) from day 15 to day 22 (therapeutic dosing schedule). At the end of the experiment, the swelling of the tarsal joints is measured by means of a mico-calliper. Percentage inhibition of paw swelling is calculated by reference to vehicle treated arthritic animals (0% inhibition) and vehicle treated normal animals (100% inhibition).
The rat adjuvant arthritis model is used to test the anti-arthritic activity of the compound of Example 1 of WO 98/35958, 1-(4-chloroanilino)-4-(4-pyridylmethyl)phthalazine dihydrochloride. The therapeutic dosing schedule with start of treatment at day 15 after induction of arthritis is used.
as §1, with “Method: Male Wistar” for “In detail, male Wistar”, “(5 rats” for “(5 animals”, “group, weight about” for “group, weighing epproximately”, “200 g;” for “200 g, supplied by”, “of lyophilized” for “of lyophilised”, “p.o. s.i.d. (=once a” for “p.o. once per”

male Sprague Dawley rats = test: Rat inflammatory hyperalgesia model (Randall-Selitto paw pressure test); format: in vivo; conditions: 30 mg/kg p.o., 1 and 2 hours after dosing
Description: In this model, the hyperalgesia caused by an intra-planar yeast injection is measured by applying increased pressure to the foot until the animal vocalizes or withdraws its foot from the applied pressure pad. The model is sensitive to COX inhibitors, and diclofenac at 3 mg/kg is used as a positive control.
Method: The baseline pressure required to induce vocalization or withdrawal of the paw of male Sprague Dawley rats (weighing approximately 180 g, supplied by Iffa Credo, France) is measured (2 hours before treatment), followed by an intra-planar injection of 100 μl of a 20% yeast suspension in water in the hind paw. […]
In this model, the hyperalgesia caused by an intra-planar yeast injection is measured by applying increased pressure to the foot until the animal vocalizes or withdraws its foot from the applied pressure pad. […]
Method: The baseline pressure required to induce vocalization or withdrawal of the paw of male Sprague Dawley rats (5 rats per group; weight approximately 180 g, Iffa Credo, France) is measured (2 hours before treatment), followed by an intra-planar injection of 100 μl of a 20% yeast suspension in water in the hind paw. […] Pressure is measured with the standard apparatus from Ugo Basile, Italy, for the paw pressure test (Randall-Selitto).

[1] = molecular target: T1, Flt-1 VEGF-receptor tyrosine kinase (Homo sapiens, UniProt P17948); test: Test for activity against Flt-1 VEGF-receptor tyrosine kinase; format: biochemical
T1 construct: 10 ng of the kinase domain of Flt-1
T1 sequence (P17948 827-1158 limits assumed): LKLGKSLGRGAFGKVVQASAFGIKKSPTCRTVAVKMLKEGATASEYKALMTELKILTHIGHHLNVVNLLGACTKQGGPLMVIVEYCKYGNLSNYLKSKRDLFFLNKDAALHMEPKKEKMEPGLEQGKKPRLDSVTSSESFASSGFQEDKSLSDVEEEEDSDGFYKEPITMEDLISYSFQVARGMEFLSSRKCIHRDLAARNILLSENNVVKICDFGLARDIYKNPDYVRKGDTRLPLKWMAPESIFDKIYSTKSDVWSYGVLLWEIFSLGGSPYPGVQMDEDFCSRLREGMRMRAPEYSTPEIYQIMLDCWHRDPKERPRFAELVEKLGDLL
Description: Test for activity against VEGF-receptor tyrosine kinase: the test is conducted using Flt-1 VEGF-receptor tyrosine kinase. […] The reaction is then ended by the addition of 10 μl 0.25 M ethylenediaminetetraacetate (EDTA) pH 7. Using a multichannel dispenser (LAB SYSTEMS, USA), an aliquot of 20 μl is applied to a PVDF (=polyvinyl difluoride) Immobilon P membrane (Millipore, USA), which is incorporated into a Millipore microtitre filter manifold, and connected to a vacuum. Following complete elimination of the liquid, the membrane is washed 4 times successively in a bath containing 0.5% phosphoric acid (H3PO4), incubated for 10 minutes each time while shaking, then mounted in a Hewlett Packard TopCount Manifold and the radioactivity measured after the addition of 10 μl Microscint® (β-scintillation counter liquid; Packard USA).
The test is conducted using Flt-1 VEGF-receptor tyrosine kinase, as described hereinabove.

Row | melting point | IC50 [1] | SMILES | other results
1 | 184 to 185 °C |  | Cc1cc(Cc2nnc(Nc3cc(Br)cc(C(F)(F)F)c3)c3ccccc23)ccn1 [Example 23, 1-(3-Bromo-5-trifluoromethyl-anilino)-4-(2-methylpyridin-4-yl-methyl)-phthalazine] | 
2 |  |  | Cl.Cl.Clc1ccc(Nc2nnc(Cc3ccncc3)c3ccccc23)cc1 [1-(4-chloroanilino)-4-(4-pyridylmethyl)phthalazine dihydrochloride] | % inhibition of swelling (male Wistar rats; 3 mg/kg p.o. once a day): 0.8 ± 4.0%; % inhibition of swelling (male Wistar rats; 10 mg/kg p.o. once a day): 12.4 ± 5.0%; % inhibition of swelling (male Wistar rats; 30 mg/kg p.o. once a day): 37.0 ± 2.3%; inhibition of paw swelling (in words) (male Wistar rats; 3, 10 or 30 mg/kg p.o., dosing for 7 days from day 15): dose-related inhibition of paw swelling; overall discomfort experienced by rats while being held for oral dosing (male Wistar rats; observation in the adjuvant arthritis model): reduce the overall discomfort; inhibition of paw hyperalgesia (in words) (male Sprague Dawley rats): inhibits paw hyperalgesia
3 |  |  | CS(=O)(=O)c1ccc(-c2cc(Br)sc2-c2ccc(F)cc2)cc1 [115–155, reference compound] | % inhibition of swelling (male Wistar rats; 3 mg/kg p.o. once a day): 53.8 ± 2.7%
4 | 136 °C | 317 nM | Cc1cccc(Nc2nnc(CCc3cccnc3)c3ccccc23)c1 [Example 2] | 
5 | 165 to 166 °C |  | FC(F)(F)c1cc(Nc2nnc(CCCc3cccnc3)c3ccccc23)ccc1Cl [Example 8, 1-(4-Chloro-3-trifluoromethylanilino)-4-[3-(pyridin-3-yl)propyl]phthalazine] | 
6 |  | 715 nM | Cc1cccc(Nc2nnc(/C=C/c3cccnc3)c3ccccc23)c1 [1 (E isomer)] | 
7 |  | 4900 nM | Cc1cccc(Nc2nnc(/C=C\c3cccnc3)c3ccccc23)c1 [1 (Z isomer)] | 
8 | 232 to 233 °C |  | Cc1cc(Nc2nnc(Cc3ccncc3)c3ccccc23)nc(C)n1 [Example 15, 1-[(2,6-Dimethyl-pyrimidin-4-yl)-amino]4-(4-pyridyl-methyl)-phthalazine] | 
